Source: the NIST ThermoML archive (doi:10.1016/j.jct.2012.02.018)
Numbers after ± are expanded uncertainties.

Settings: Liquid; for mass density: Vibrating tube method; for viscosity: Concentric cylinders viscometry

CCCC[n+]1ccc(C)cc1.F[B-](F)(F)F [1-butyl-4-methylpyridinium tetrafluoroborate]
Settings	mass density [kg/m3]	viscosity [mPa·s]
278.16 K, 101.33 kPa	1202.41 ± 2.7	–
283.13 K, 2389 kPa	1200.77 ± 2.2	–
283.14 K, 99418 kPa	1237.54 ± 2.9	–
283.15 K, 101.33 kPa	–	765.72 ± 41
283.15 K, 60042 kPa	1223.77 ± 2.6	–
283.15 K, 79648 kPa	1230.82 ± 2.7	–
283.15 K, 89923 kPa	1234.36 ± 2.8	–
283.16 K, 49953 kPa	1219.99 ± 2.5	–
283.16 K, 69924 kPa	1227.37 ± 2.6	–
283.17 K, 101.33 kPa	1198.9 ± 2.7	–
283.17 K, 20156 kPa	1208.22 ± 2.3	–
283.17 K, 29957 kPa	1212.19 ± 2.4	–
283.17 K, 39808 kPa	1216.08 ± 2.5	–
283.2 K, 5533 kPa	1202.11 ± 2.3	–
283.2 K, 10148 kPa	1204.06 ± 2.3	–
293.13 K, 2593 kPa	1194.15 ± 2.2	–
293.14 K, 99354 kPa	1231.77 ± 2.8	–
293.15 K, 101.33 kPa	–	338.59 ± 16
293.15 K, 69958 kPa	1221.46 ± 2.6	–
293.15 K, 79965 kPa	1225.08 ± 2.7	–
293.15 K, 90001 kPa	1228.6 ± 2.8	–
293.16 K, 101.33 kPa	1191.79 ± 2.6	–
293.16 K, 5220 kPa	1195.31 ± 2.2	–
293.16 K, 49933 kPa	1213.87 ± 2.5	–
293.16 K, 59929 kPa	1217.71 ± 2.6	–
293.17 K, 10236 kPa	1197.5 ± 2.3	–
293.17 K, 19941 kPa	1201.67 ± 2.3	–
293.17 K, 29914 kPa	1205.84 ± 2.4	–
293.17 K, 39693 kPa	1209.82 ± 2.4	–
298.13 K, 101.33 kPa	1188.41 ± 2.6	–
298.15 K, 101.33 kPa	–	236.97 ± 11
298.15 K, 1003 kPa	1190.06 ± 2.2	–
298.15 K, 5005 kPa	1191.86 ± 2.2	–
298.15 K, 10002 kPa	1194.09 ± 2.3	–
298.15 K, 19998 kPa	1198.45 ± 2.3	–
298.15 K, 29945 kPa	1202.67 ± 2.4	–
298.15 K, 39923 kPa	1206.79 ± 2.4	–
298.15 K, 49991 kPa	1210.83 ± 2.5	–
298.15 K, 60002 kPa	1214.72 ± 2.5	–
298.15 K, 70001 kPa	1218.49 ± 2.6	–
298.15 K, 79994 kPa	1222.14 ± 2.7	–
298.15 K, 90002 kPa	1225.68 ± 2.8	–
298.15 K, 99998 kPa	1229.1 ± 2.8	–
303.15 K, 101.33 kPa	–	171.04 ± 7.5
313.13 K, 101.33 kPa	1178.11 ± 2.6	–
313.15 K, 101.33 kPa	–	96.18 ± 4
313.15 K, 59740 kPa	1205.47 ± 2.5	–
313.16 K, 2707 kPa	1180.63 ± 2.2	–
313.16 K, 20303 kPa	1188.77 ± 2.3	–
313.16 K, 29913 kPa	1193.03 ± 2.3	–
313.16 K, 49943 kPa	1201.51 ± 2.5	–
313.16 K, 69933 kPa	1209.44 ± 2.6	–
313.16 K, 89952 kPa	1216.83 ± 2.7	–
313.16 K, 99473 kPa	1220.15 ± 2.8	–
313.17 K, 5339 kPa	1181.88 ± 2.2	–
313.17 K, 10173 kPa	1184.14 ± 2.2	–
313.17 K, 39937 kPa	1197.34 ± 2.4	–
313.17 K, 79710 kPa	1213.11 ± 2.6	–
323.15 K, 101.33 kPa	–	58.53 ± 2.4
333.13 K, 1547 kPa	1166.3 ± 2.2	–
333.13 K, 39448 kPa	1184.41 ± 2.4	–
333.14 K, 101.33 kPa	1164.59 ± 2.6	–
333.14 K, 49914 kPa	1188.99 ± 2.4	–
333.14 K, 60043 kPa	1193.26 ± 2.5	–
333.15 K, 101.33 kPa	–	38.29 ± 1.6
333.15 K, 5146 kPa	1168.12 ± 2.2	–
333.15 K, 29917 kPa	1180.08 ± 2.3	–
333.15 K, 69942 kPa	1197.26 ± 2.5	–
333.16 K, 19866 kPa	1175.35 ± 2.2	–
333.16 K, 79463 kPa	1200.96 ± 2.6	–
333.16 K, 89996 kPa	1204.89 ± 2.6	–
333.17 K, 9837 kPa	1170.46 ± 2.2	–
333.17 K, 99595 kPa	1208.3 ± 2.7	–
343.14 K, 101.33 kPa	1157.92 ± 2.5	–
343.15 K, 101.33 kPa	–	26.48 ± 1.1
353.13 K, 59133 kPa	1180.36 ± 2.4	–
353.14 K, 2498 kPa	1152.85 ± 2.1	–
353.14 K, 5035 kPa	1154.22 ± 2.1	–
353.14 K, 9690 kPa	1156.69 ± 2.2	–
353.14 K, 20367 kPa	1162.21 ± 2.2	–
353.14 K, 29942 kPa	1166.97 ± 2.3	–
353.14 K, 39870 kPa	1171.71 ± 2.3	–
353.14 K, 49991 kPa	1176.35 ± 2.4	–
353.14 K, 70001 kPa	1184.93 ± 2.5	–
353.15 K, 101.33 kPa	–	19.17 ± 0.79
353.15 K, 89993 kPa	1192.71 ± 2.6	–
353.16 K, 79945 kPa	1188.9 ± 2.5	–
353.16 K, 98529 kPa	1195.8 ± 2.6	–
363.15 K, 101.33 kPa	–	14.41 ± 0.6
373.13 K, 59930 kPa	1168.03 ± 2.4	–
373.14 K, 2866 kPa	1138.93 ± 2.1	–
373.14 K, 40385 kPa	1158.91 ± 2.3	–
373.14 K, 49993 kPa	1163.5 ± 2.3	–
373.14 K, 69984 kPa	1172.37 ± 2.4	–
373.15 K, 101.33 kPa	–	11.19 ± 0.46
373.15 K, 5031 kPa	1140.17 ± 2.1	–
373.15 K, 29936 kPa	1153.67 ± 2.2	–
373.15 K, 79614 kPa	1176.31 ± 2.5	–
373.15 K, 90002 kPa	1180.33 ± 2.5	–
373.15 K, 99124 kPa	1183.64 ± 2.6	–
373.16 K, 9772 kPa	1142.85 ± 2.1	–
373.17 K, 20168 kPa	1148.55 ± 2.2	–
393.14 K, 99382 kPa	1171.13 ± 2.5	–
393.15 K, 10459 kPa	1129.2 ± 2.1	–
393.15 K, 20029 kPa	1134.74 ± 2.1	–
393.15 K, 90001 kPa	1167.72 ± 2.5	–
393.16 K, 2068 kPa	1124.13 ± 2.1	–
393.16 K, 5306 kPa	1126.11 ± 2.1	–
393.16 K, 29942 kPa	1140.22 ± 2.2	–
393.17 K, 39803 kPa	1145.4 ± 2.2	–
393.17 K, 49942 kPa	1150.46 ± 2.3	–
393.17 K, 70000 kPa	1159.64 ± 2.4	–
393.17 K, 80173 kPa	1163.89 ± 2.4	–
393.18 K, 59764 kPa	1155.09 ± 2.3	–
